pKd: −log10 of the molar value.
Target: T1, Histidine-binding periplasmic protein [1-238] (Escherichia coli (strain 55989 / EAEC), UniProt P0AEU0)
T1 construct: 1-238
T1 sequence (P0AEU0 whole entry): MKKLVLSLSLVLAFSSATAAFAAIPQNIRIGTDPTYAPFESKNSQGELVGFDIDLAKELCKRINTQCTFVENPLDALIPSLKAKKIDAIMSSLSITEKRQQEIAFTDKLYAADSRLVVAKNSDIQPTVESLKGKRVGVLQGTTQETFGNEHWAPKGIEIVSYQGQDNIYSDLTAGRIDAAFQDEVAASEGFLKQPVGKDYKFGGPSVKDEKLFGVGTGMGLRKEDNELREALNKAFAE
Experiment: Isothermal Titration Calorimetry (ITC)
Conditions: pH 7; 30 °C
Method: All ITC experiments were performed using a Microcal VP-ITC microcalorimeter (GE Healthcare). All samples were prepared in a buffer containing 20 mM HEPES (pH 7.0) and 100 mM NaCl. The syringe was filled with 0.5 mM histidine that was injected into the ITC cell containing 20 μM protein (D1, D2, or HisJ) solution at 30 °C.

With `N[C@@H](Cc1c[nH]cn1)C(=O)O` [L-2-Amino-3-(4-imidazolyl)propionic acid] the pKd was 6.94.
